Where “and” joins values, the source holds several entries; their conditions need not be identical. Equal entries are not always repeated. Where two headings read alike, the source gives them in different places. One block for each molecule: values may come before it.
Experiments:
[1] = target: T1, dopamine D2L receptor (Homo sapiens, UniProt P14416); assay: Dopamine D2L receptor radioligand binding (HEK-293)
T1 construct: host or cells: HEK-293 cells (membrane homogenates)
Description: (§1) α1 Adrenergic and Dopamine D2 Receptors. Methods: Binding and functional assays for α1 adrenergic and dopamine D2 receptors were performed by Eurofins Cerep according to their methods.
(§2) Dopamine D2 Receptor. Binding at 10 μM. The binding assay evaluated the affinity of test articles for the dopamine D2 receptor in transfected human embryonic kidney (HEK)-293 cells. For determining the binding in the D2S receptor assay, test article was incubated with 0.3 nM [^3H] methylspiperone or 1 nM [^3H] 7-hydroxy-2-N,N-dipropylaminotetralin (7-OH-DPAT). [3H] Methylspiperone at 0.3 nM also was used as control ligand in the D2L binding assay. Cell membrane homogenates were incubated in duplicate at room temperature for 60 minutes with ligand in the absence or presence of test articles at 10 μM. After the incubation period, samples were filtered through glass fiber filters, the filters dried and then counted for radioactivity using a scintillation counter. Results are expressed as mean percent inhibition of control radioligand binding.
(§3) Binding IC50. To determine the binding IC50 in the D2 receptor assays, HEK-293 were tested as described above but with varying concentrations of test article. Compound A was tested at 0.01-30 μM in the D2S radioligand binding assay. […] Compound 1 was assayed at 0.03-100 μM in both the D2S and D2L assays, while Compound 2 was tested at 0.03-100 μM in the D2S assay and 0.01-100 μM in the D2L assays. The IC50 was defined as the concentration causing a half-maximum inhibition of control specific binding.

[2] = tested on: non-selective α1 adrenergic receptor; assay: α1 adrenergic receptor radioligand binding ([3H]prazosin); conditions: rat cerebral cortex; for Adrenergic α1 (non-selective) % Inhibition (10 μM): 0.25 nM [3H]prazosin; for IC50: [3H]prazosin
Description: as §1
α1 Adrenergic Receptor. Binding at 10 μM. The binding assay evaluated the affinity of test article for the non-selective α1 adrenergic receptor in rat cerebral cortex. Membrane homogenates of cerebral cortex were incubated in duplicate for 60 minutes at room temperature with 0.25 nM [^3H]prazosin in the absence or presence of test articles at 10 μM. After the incubation period, samples were filtered through glass fiber filters, the filters dried and then counted for radioactivity using a scintillation counter. Results are expressed as mean percent inhibition of control radioligand binding.
Binding IC50. […] Compound A was tested at 0.01-30 μM. […] Compound 1 and Compound 2, the S-enantiomer of Compound 1, were assayed at 0.03-100 μM. Radioactivity was measured as described above. The IC50 was defined as the concentration causing a half-maximum inhibition of control specific binding.

[3] = target: T2, dopamine D2S receptor (Homo sapiens, UniProt P14416); assay: Dopamine D2S receptor radioligand binding (HEK-293); conditions: for inhibition at 10 µM: read-out: Dopamine D2S % Inhibition (10 μM)
T2 construct: host or cells: HEK-293 cells (membrane homogenates)
Description: as §1, §2, §3

[4] = tested on: NCI-H929-1051 (lenalidomide-resistant); assay: Cell proliferation assay (CTG, 120 h); format: cell-based, human; conditions: for IC50: Homo sapiens, 120 h
Description: Cell Culture Materials: Human multiple myeloma cell lines were purchased from the vendors and cultured at 37° C. with 5% CO2 in the media as indicated in Table 1. Lenalidomide and pomalidomide resistant cell lines were obtained by methods as generally described previously (Lopez-Girona et al Leukemia 2012; 26(11): 2335). All cell lines were kept in log phase, and cell density and viability were monitored by trypan blue exclusion using the Vi-cell XR cell viability analyzer (Beckman Coulter, Brea, CA).
Preparation of Solutions of Test Article: Compounds were plated into black 384-well plates (Corning Inc.) to a final DMSO volume of 0.1% assuming a maximal volume of 50 μL. A 10-point dose response starting at 10 μM with a 1:3 dilution was printed in duplicate by acoustic dispense using the EDC ATS-100 platform. Alternatively, the 10-point dose response starting at 10 μM with a 1:10 dilution, or starting at 100 nM with a 1:3 dilutions were used.
Cell Proliferation Assays: The effect of compounds on the proliferation/viability of the hematological cell lines (Table 1), was assessed after 120 h incubation using CTG (Promega), according to manufacturer's instructions. Hematological cell lines were dispensed into compound plates by a Multidrop Combi Reagent Dispenser (Thermo Scientific, Waltham, MA) at a concentration of 0.1×10^6 cells per mL in a 50 μL total volume. At 120 h, 25 μL per well of CTG was dispensed by a Multidrop Combi Reagent Dispenser and adenosine triphosphate (ATP) release by viable cells was measured as relative luminescence units after 30 minutes using the Envision platform.
Results. […] The MM cell lines selected for this study were lines sensitive and resistant to lenalidomide and/or pomalidomide (Table 1), two agents used in the clinic to treat myeloma patients. Proliferation was assessed using the CellTitre-Glo© assay. Results for cultures incubated with the compounds were normalized to results for control cultures for each cell line. The IC50 for inhibition of cell growth by the compounds was determined for each cell line using ActivityBase software.
Combination with Dexamethasone. The activity of pomalidomide with that of Compound 2 alone or in combination with dexamethasone was evaluated across a panel of MM cell lines. […] Table 3 summarizes the potency (IC50) of the single agent and dexamethasone combination studies performed in the H929-1051 cell line. […] Each IC50 is the average from at least 3 independent experiments. Proliferation was monitored on Day 5 using Cell Titer-Glo.

[5] = CTG, read-out: NCI-H929.1051 120 h IC50
[6] = read-out: 0.01 μM Dex Combo IC50, H929-1051, Day 5, in combination with 0.01 μM dexamethasone
[7] = read-out: 0.1 μM Dex Combo IC50, H929-1051, Day 5, in combination with 0.1 μM dexamethasone
[8] = read-out: 1 μM Dex Combo IC50, H929-1051, Day 5, in combination with 1 μM dexamethasone
[9] = H929-1051, Day 5 Cell Titer-Glo, single agent, read-out: Single Agent IC50

T1 sequence (P14416 whole entry): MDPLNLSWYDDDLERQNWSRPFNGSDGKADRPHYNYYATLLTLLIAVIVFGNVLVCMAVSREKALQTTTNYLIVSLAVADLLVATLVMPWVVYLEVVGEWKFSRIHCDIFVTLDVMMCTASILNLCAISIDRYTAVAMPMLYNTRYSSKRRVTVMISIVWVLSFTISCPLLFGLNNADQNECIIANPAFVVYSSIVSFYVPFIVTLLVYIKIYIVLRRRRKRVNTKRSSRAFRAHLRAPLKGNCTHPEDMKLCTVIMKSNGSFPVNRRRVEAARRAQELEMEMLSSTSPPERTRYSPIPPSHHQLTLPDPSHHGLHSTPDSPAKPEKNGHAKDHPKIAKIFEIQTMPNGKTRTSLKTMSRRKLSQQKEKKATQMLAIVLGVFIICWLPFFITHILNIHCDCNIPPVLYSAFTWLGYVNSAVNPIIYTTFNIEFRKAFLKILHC
T2 sequence (P14416 1-414 isoform P14416-2): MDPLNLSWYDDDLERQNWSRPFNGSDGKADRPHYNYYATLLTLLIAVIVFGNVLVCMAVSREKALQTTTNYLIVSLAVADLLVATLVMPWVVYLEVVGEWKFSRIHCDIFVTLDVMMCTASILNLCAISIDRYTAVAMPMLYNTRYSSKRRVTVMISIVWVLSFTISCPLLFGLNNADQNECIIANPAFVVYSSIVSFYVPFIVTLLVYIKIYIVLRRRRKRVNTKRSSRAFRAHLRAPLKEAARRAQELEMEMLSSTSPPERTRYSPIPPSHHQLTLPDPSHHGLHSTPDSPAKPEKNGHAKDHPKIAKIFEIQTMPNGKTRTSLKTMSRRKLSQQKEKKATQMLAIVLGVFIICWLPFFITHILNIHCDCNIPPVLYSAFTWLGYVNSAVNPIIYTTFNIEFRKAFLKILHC

SMILES: N#Cc1ccc(N2CCN(Cc3ccc(COc4cccc5c4CN(C4CCC(=O)NC4=O)C5=O)cc3)CC2)c(F)c1 (racemic) [Compound 1, 4-(4-(4-(((2-(2,6-dioxopiperidin-3-yl)-1-oxoisoindolin-4-yl)oxy)methyl)benzyl)piperazin-1-yl)-3-fluorobenzonitrile]
- IC50 [1]: 2300 nM
- inhibition at 10 µM ([1]; read-out: D2L % Inhibition (10 μM)): 55%
- Adrenergic α1 (non-selective) % Inhibition (10 μM) [2]: 67%
- IC50 [2]: 3900 nM
- IC50 [3]: 7400 nM
- inhibition at 10 µM [3]: 55%
- IC50 [4, 5]: 2.5 nM

SMILES: N#Cc1ccc(N2CCN(Cc3ccc(COc4cccc5c4CN([C@H]4CCC(=O)NC4=O)C5=O)cc3)CC2)c(F)c1 [Compound 2, (S)-4-(4-(4-(((2-(2,6-dioxopiperidin-3-yl)-1-oxoisoindolin-4-yl)oxy)methyl)benzyl)piperazin-1-yl)-3-fluorobenzonitrile]
- IC50 [1]: ~3000 nM
- Adrenergic α1 (non-selective) % Inhibition (10 μM) [2]: 62%
- IC50 [2]: ~1300 nM
- IC50 [3]: ~2000 nM
- inhibition at 10 µM [3]: 52%
- potency of single agent versus pomalidomide-dexamethasone combination ([4]; H929-1051): 10 fold
- IC50 [4, 6]: 0.41 nM
- IC50 [4, 7]: 0.0429 nM
- IC50 [4, 8]: 0.018 nM
- IC50 [4, 9]: 0.98 nM
- IC50 [4, 5]: 1 nM

SMILES: O=C1CC[C@H](N2Cc3c(OCc4ccc(CN5CCN(c6ccc(F)cc6F)CC5)cc4)cccc3C2=O)C(=O)N1 [Compound B]
- D2L % Inhibition (10 μM) ([1]; 10 μM): 103%
- IC50 ([1]; read-out: D2L Binding IC50): 84 nM
- Adrenergic α1 (non-selective) % Inhibition (10 μM) [2]: 98% and 100%
- IC50 [2]: 24 nM
- Dopamine D2S % Inhibition (10 μM) ([3]; 10 μM): 99, % and 99^a %

- IC50 [4, 6]: 3840 nM
- IC50 [4, 7]: 118 nM
- IC50 [4, 8]: 18.8 nM
- IC50 [4, 9]: > 10000 nM
SMILES: Nc1cccc2c1C(=O)N(C1CCC(=O)NC1=O)C2=O (stereo not drawn) [Pomalidomide, pomalidomide]

Source: patent US12029738B2, “Antiproliferative compounds and methods of use thereof” (Celgene Corporation, priority 2017, dated 2024)
